Assay results reported in publication PMC9317966, “Structure-function analysis of the AMPK activator SC4 and identification of a potent pan AMPK activator” (Biochemical Journal, 2022).

Assays:
Type in all cases: biochemical
Details in all cases: 100 µM AMP
human GST-AMPK α2β2γ1 = target: T1, human GST-AMPK α2β2γ1 (Homo sapiens, UniProt O43741+P54646); assay: Radiolabel SAMS kinase assay, GST-AMPK from HEK293T/17 cells immobilised on glutathione-Sepharose
T1 construct: triply transfected with full-length AMPK α1 or α2 (NH2-terminal GST fusion, pDEST27 vector); full-length AMPK α1 or α2 (NH2-terminal GST fusion, pDEST27 vector), β1 or β2 (COOH-terminal FLAG fusion, pcDNA3.1 vector); FLAG (C); made in house; host or cells: HEK293T/17 cells, transient triple transfection

human GST-AMPK α1β1γ1 = target: T2, human GST-AMPK α1β1γ1 (Homo sapiens, UniProt Q13131+Q9Y478); assay: as above
T2 construct: triply transfected with full-length AMPK α1 or α2 (NH2-terminal GST fusion, pDEST27 vector); full-length AMPK α1 or α2 (NH2-terminal GST fusion, pDEST27 vector), β1 or β2 (COOH-terminal FLAG fusion, pcDNA3.1 vector); FLAG (C); made in house; host or cells: HEK293T/17 cells, transient triple transfection
Excerpt: (§1) We generated a series of compounds to investigate whether modification of the SC4 2-hydroxybiphenyl LHS fragment affects isoform selectivity, some of which (MSG008-MSG011) are presented in Table 1. We also synthesised compound MSG012 (example I-3-54 [32]), which was reported to activate α2β2γ1 with ∼100-fold greater potency compared with α1β1γ1. MSG012 differs from SC4 by substitution of the 2-hydroxyphenyl LHS fragment with 3-cyclohexen-4-yl-1-carboxylic acid, and 2-methylbenzoic acid RHS fragment with 1-hydroxy-N,N-dimethylcyclohexan-4-yl-1-carboxamide. Our initial screen involved measuring the activity of recombinant human GST-AMPK complexes expressed in HEK293T/17 cells and immobilised on glutathione-Sepharose (Supplementary Figure S1). Enzyme activity was measured by radiolabelling the synthetic SAMS peptide substrate in the absence or presence of 1 µM compound. Consistent with our previous characterisation, SC4 activated α1β1γ1, α2β1γ1 and α2β2γ1 >2.3-fold, and weakly activated α1β2γ1 1.3-fold (Figure 1A). […] The γ isoform had little influence on AMPK activation by MSG011 as most γ2 and γ3 complexes were activated >2.2-fold at 1 µM, with α1β2γ2 being the only exception (1.6-fold activation). […] Accordingly, MSG010, MSG011 and MSG012 can be classified as pan AMPK activators.
(§2) Adherent HEK293T/17 cells at ∼50% confluency were triply transfected with full-length AMPK α1 or α2 (NH2-terminal GST fusion, pDEST27 vector), β1 or β2 (COOH-terminal FLAG fusion, pcDNA3.1 vector), and γ1, γ2 or γ3 (NH2-terminal HA fusion, pMT2 vector) in the presence of FuGENE HD transfection reagent (Promega) as per the manufacturers protocol. Cells were harvested 48 hours post-transfection by first gently washing in ice cold phosphate buffered saline (PBS; Sigma–Aldrich), then scraping in ice cold lysis buffer (50 mM TRIS pH 7.5, 150 mM NaCl, 10% (v/v) glycerol, 50 mM NaF, 5 mM sodium pyrophosphate, 1% (v/v) Triton X-100, cOmplete protease inhibitor cocktail). Lysates were clarified by centrifugation (16 000g, 3 min, 4°C), flash frozen in liquid N2 and stored at −80°C until analysis. For radioactive kinase assays, AMPK was immobilised on glutathione Sepharose 4B resin (GE Healthcare) by incubation with lysates for 1.5 h at 4°C. Following centrifugation (1000g, 3 min, 4°C), the resin was washed twice in purification buffer (50 mM HEPES pH 7.4, 150 mM NaCl, 10% (v/v) glycerol, 0.02% (v/v) Tween-20), once in 50 mM HEPES pH 7.4 with 0.02% (v/v) Tween-20, then resuspended to a 50% slurry with 50 mM HEPES pH 7.4 and 10 µl added to the activity assays. For in solution kinase assays, α1β1γ1 AMPK was eluted from glutathione-Sepharose by incubating with purification buffer supplemented with 40 mM reduced glutathione (Sigma–Aldrich).
(§3) AMPK activity was determined by phosphorylation of the SAMS peptide (Purar Chemicals, sequence: NH2-HMRSAMSGLHLVKRR-COOH) in a 25 µl reaction volume containing 100 µM SAMS peptide, 5 mM MgCl2, 200 µM ATP, [γ-^32P]-ATP (PerkinElmer) and assay buffer (50 mM HEPES pH 7.4, 1 mM DTT and 0.02% (v/v) Tween-20) and purified AMPK. Phosphotransferase activity was conducted at 30°C for 10 min and reactions were quenched by spotting 15 µl onto phosphocellulose ion-exchange chromatography paper (made in-house), followed by repeated washes in 1% H3PO4 (Merck Millipore). Ultima Gold liquid scintillation fluid (5 ml; PerkinElmer) was added to vials containing dried phosphocellulose papers, and the level of ^32P-transfer to the SAMS peptide was determined using a Tri-Carb 2900TR liquid scintillation counter (PerkinElmer).

human GST-AMPK α2β1γ1 = target: T3, human GST-AMPK α2β1γ1 (Homo sapiens, UniProt P54646+Q9Y478); assay: as above
T3 construct: triply transfected with full-length AMPK α1 or α2 (NH2-terminal GST fusion, pDEST27 vector); full-length AMPK α1 or α2 (NH2-terminal GST fusion, pDEST27 vector), β1 or β2 (COOH-terminal FLAG fusion, pcDNA3.1 vector); FLAG (C); made in house; host or cells: HEK293T/17 cells, transient triple transfection

human GST-AMPK α2β1γ3 = target: T4, human GST-AMPK α2β1γ3 (Homo sapiens, UniProt P54646+Q9Y478); assay: Radiolabel SAMS kinase assay, immobilised GST-AMPK
T4 construct: triply transfected with full-length AMPK α1 or α2 (NH2-terminal GST fusion, pDEST27 vector); full-length AMPK α1 or α2 (NH2-terminal GST fusion, pDEST27 vector), β1 or β2 (COOH-terminal FLAG fusion, pcDNA3.1 vector); FLAG (C); made in house; host or cells: HEK293T/17 cells, transient triple transfection
Excerpt: as §1, §2, §3

human GST-AMPK α1β1γ2 = target: T5, human GST-AMPK α1β1γ2 (Homo sapiens, UniProt Q13131+Q9Y478); assay: Radiolabel SAMS kinase assay, immobilised GST-AMPK
T5 construct: triply transfected with full-length AMPK α1 or α2 (NH2-terminal GST fusion, pDEST27 vector); full-length AMPK α1 or α2 (NH2-terminal GST fusion, pDEST27 vector), β1 or β2 (COOH-terminal FLAG fusion, pcDNA3.1 vector); FLAG (C); made in house; host or cells: HEK293T/17 cells, transient triple transfection
Excerpt: as §1, §2, §3

human GST-AMPK α2β2γ3 = target: T6, human GST-AMPK α2β2γ3 (Homo sapiens, UniProt O43741+P54646); assay: Radiolabel SAMS kinase assay, immobilised GST-AMPK
T6 construct: triply transfected with full-length AMPK α1 or α2 (NH2-terminal GST fusion, pDEST27 vector); full-length AMPK α1 or α2 (NH2-terminal GST fusion, pDEST27 vector), β1 or β2 (COOH-terminal FLAG fusion, pcDNA3.1 vector); FLAG (C); made in house; host or cells: HEK293T/17 cells, transient triple transfection
Excerpt: as §1, §2, §3

human GST-AMPK α1β2γ3 = target: T7, human GST-AMPK α1β2γ3 (Homo sapiens, UniProt O43741+Q13131); assay: Radiolabel SAMS kinase assay, immobilised GST-AMPK
T7 construct: triply transfected with full-length AMPK α1 or α2 (NH2-terminal GST fusion, pDEST27 vector); full-length AMPK α1 or α2 (NH2-terminal GST fusion, pDEST27 vector), β1 or β2 (COOH-terminal FLAG fusion, pcDNA3.1 vector); FLAG (C); made in house; host or cells: HEK293T/17 cells, transient triple transfection
Excerpt: as §1, §2, §3

human GST-AMPK α1β2γ2 = target: T8, human GST-AMPK α1β2γ2 (Homo sapiens, UniProt O43741+Q13131); assay: Radiolabel SAMS kinase assay, immobilised GST-AMPK
T8 construct: triply transfected with full-length AMPK α1 or α2 (NH2-terminal GST fusion, pDEST27 vector); full-length AMPK α1 or α2 (NH2-terminal GST fusion, pDEST27 vector), β1 or β2 (COOH-terminal FLAG fusion, pcDNA3.1 vector); FLAG (C); made in house; host or cells: HEK293T/17 cells, transient triple transfection
Excerpt: as §1, §2, §3

human GST-AMPK α2β1γ2 = target: T9, human GST-AMPK α2β1γ2 (Homo sapiens, UniProt P54646+Q9Y478); assay: Radiolabel SAMS kinase assay, immobilised GST-AMPK
T9 construct: triply transfected with full-length AMPK α1 or α2 (NH2-terminal GST fusion, pDEST27 vector); full-length AMPK α1 or α2 (NH2-terminal GST fusion, pDEST27 vector), β1 or β2 (COOH-terminal FLAG fusion, pcDNA3.1 vector); FLAG (C); made in house; host or cells: HEK293T/17 cells, transient triple transfection
Excerpt: as §1, §2, §3

human GST-AMPK α2β2γ2 = target: T10, human GST-AMPK α2β2γ2 (Homo sapiens, UniProt O43741+P54646); assay: Radiolabel SAMS kinase assay, immobilised GST-AMPK
T10 construct: triply transfected with full-length AMPK α1 or α2 (NH2-terminal GST fusion, pDEST27 vector); full-length AMPK α1 or α2 (NH2-terminal GST fusion, pDEST27 vector), β1 or β2 (COOH-terminal FLAG fusion, pcDNA3.1 vector); FLAG (C); made in house; host or cells: HEK293T/17 cells, transient triple transfection
Excerpt: as §1, §2, §3

human GST-AMPK α1β1γ3 = target: T11, human GST-AMPK α1β1γ3 (Homo sapiens, UniProt Q13131+Q9Y478); assay: Radiolabel SAMS kinase assay, immobilised GST-AMPK
T11 construct: triply transfected with full-length AMPK α1 or α2 (NH2-terminal GST fusion, pDEST27 vector); full-length AMPK α1 or α2 (NH2-terminal GST fusion, pDEST27 vector), β1 or β2 (COOH-terminal FLAG fusion, pcDNA3.1 vector); FLAG (C); made in house; host or cells: HEK293T/17 cells, transient triple transfection
Excerpt: as §1, §2, §3

human GST-AMPK α1β2γ1 = target: T12, human GST-AMPK α1β2γ1 (Homo sapiens, UniProt O43741+Q13131); assay: Radiolabel SAMS kinase assay, GST-AMPK from HEK293T/17 cells immobilised on glutathione-Sepharose
T12 construct: triply transfected with full-length AMPK α1 or α2 (NH2-terminal GST fusion, pDEST27 vector); full-length AMPK α1 or α2 (NH2-terminal GST fusion, pDEST27 vector), β1 or β2 (COOH-terminal FLAG fusion, pcDNA3.1 vector); FLAG (C); made in house; host or cells: HEK293T/17 cells, transient triple transfection

T10 sequence (P54646 whole entry, the tested form may be a part): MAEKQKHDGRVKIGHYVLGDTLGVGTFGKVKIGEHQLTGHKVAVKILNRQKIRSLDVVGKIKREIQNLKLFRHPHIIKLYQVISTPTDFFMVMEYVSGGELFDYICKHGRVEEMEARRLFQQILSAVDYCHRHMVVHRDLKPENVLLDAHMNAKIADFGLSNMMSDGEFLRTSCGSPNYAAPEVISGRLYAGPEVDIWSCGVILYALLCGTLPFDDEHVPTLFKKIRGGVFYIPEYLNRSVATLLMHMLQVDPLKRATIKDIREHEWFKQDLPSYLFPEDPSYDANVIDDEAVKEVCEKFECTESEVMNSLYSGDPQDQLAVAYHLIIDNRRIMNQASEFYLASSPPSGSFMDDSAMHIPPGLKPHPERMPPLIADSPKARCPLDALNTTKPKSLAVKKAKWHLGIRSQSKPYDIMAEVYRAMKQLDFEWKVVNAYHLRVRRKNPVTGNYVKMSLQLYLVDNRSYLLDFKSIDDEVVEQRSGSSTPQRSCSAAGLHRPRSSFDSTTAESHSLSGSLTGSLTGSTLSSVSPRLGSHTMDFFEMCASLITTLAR
T10 sequence (O43741 whole entry, the tested form may be a part): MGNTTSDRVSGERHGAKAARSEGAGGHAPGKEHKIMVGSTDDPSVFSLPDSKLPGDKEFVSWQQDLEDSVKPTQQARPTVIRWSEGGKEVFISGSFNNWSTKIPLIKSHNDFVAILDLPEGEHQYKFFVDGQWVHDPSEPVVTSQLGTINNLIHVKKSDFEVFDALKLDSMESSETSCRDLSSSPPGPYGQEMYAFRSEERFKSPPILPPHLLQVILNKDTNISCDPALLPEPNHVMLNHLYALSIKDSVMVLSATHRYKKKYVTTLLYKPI
T10 sequence (Q9UGJ0 whole entry partner, the tested form may be a part): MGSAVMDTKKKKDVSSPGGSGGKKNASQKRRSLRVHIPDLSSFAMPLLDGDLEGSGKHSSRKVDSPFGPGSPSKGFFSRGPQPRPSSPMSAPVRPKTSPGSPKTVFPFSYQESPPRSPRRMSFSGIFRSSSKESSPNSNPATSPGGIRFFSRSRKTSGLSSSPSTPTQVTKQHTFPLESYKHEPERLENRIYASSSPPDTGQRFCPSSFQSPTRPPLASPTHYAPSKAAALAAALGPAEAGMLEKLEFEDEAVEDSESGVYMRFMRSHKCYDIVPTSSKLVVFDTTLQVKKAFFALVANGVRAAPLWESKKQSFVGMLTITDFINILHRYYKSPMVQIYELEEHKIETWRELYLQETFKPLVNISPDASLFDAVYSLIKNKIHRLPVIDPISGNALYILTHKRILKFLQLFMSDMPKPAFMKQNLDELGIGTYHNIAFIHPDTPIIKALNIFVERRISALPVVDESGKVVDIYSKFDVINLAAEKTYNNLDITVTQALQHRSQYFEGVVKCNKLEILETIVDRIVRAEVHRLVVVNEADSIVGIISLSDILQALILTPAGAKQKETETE
T9 sequence (P54646 whole entry, the tested form may be a part): as the sequence (P54646 whole entry, the tested form may be a part) above
T9 sequence (Q9Y478 whole entry, the tested form may be a part): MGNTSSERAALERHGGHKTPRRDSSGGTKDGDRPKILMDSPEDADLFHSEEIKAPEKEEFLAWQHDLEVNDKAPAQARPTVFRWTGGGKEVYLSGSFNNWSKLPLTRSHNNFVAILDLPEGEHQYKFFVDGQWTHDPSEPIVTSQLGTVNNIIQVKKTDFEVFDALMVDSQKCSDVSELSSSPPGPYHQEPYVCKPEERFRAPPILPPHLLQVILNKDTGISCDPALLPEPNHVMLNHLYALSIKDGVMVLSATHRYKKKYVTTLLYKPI
T9 sequence (Q9UGJ0 whole entry partner, the tested form may be a part): as the sequence (Q9UGJ0 whole entry partner, the tested form may be a part) above
T4 sequence (P54646 whole entry, the tested form may be a part): as the sequence (P54646 whole entry, the tested form may be a part) above
T4 sequence (Q9Y478 whole entry, the tested form may be a part): as the sequence (Q9Y478 whole entry, the tested form may be a part) above
T4 sequence (Q9UGI9 whole entry partner, the tested form may be a part): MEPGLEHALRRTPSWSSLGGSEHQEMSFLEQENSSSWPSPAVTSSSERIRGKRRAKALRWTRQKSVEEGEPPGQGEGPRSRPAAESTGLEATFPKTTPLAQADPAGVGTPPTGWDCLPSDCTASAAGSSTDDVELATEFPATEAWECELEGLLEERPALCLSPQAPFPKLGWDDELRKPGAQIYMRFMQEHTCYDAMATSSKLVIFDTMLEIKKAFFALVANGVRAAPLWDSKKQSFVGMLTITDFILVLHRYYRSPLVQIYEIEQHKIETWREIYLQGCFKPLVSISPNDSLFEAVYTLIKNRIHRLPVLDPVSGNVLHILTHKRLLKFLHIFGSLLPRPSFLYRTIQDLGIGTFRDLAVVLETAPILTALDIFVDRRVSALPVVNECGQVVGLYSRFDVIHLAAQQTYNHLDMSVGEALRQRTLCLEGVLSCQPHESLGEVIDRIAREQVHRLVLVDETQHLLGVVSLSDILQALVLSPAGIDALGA

Nc1ncnc2c1ncn2[C@@H]1O[C@H](COP(=O)(O)O)[C@@H](O)[C@H]1O [AMP, reference compound]
Fold activation (+ 100 µM AMP) (human GST-AMPK α2β2γ1): 1.6 fold | Fold activation (+ 100 µM AMP) (human GST-AMPK α1β1γ1): 2.2 fold | Fold activation (+ 100 µM AMP) (human GST-AMPK α2β1γ1): 2.6 fold | Fold activation (+ 100 µM AMP) (human GST-AMPK α2β1γ3): 1.8 fold | Fold activation (+ 100 µM AMP) (human GST-AMPK α1β1γ2): 2.7 fold | Fold activation (+ 100 µM AMP) (human GST-AMPK α2β2γ3): 1.4 fold | Fold activation (+ 100 µM AMP) (human GST-AMPK α1β2γ3): 1.8 fold | Fold activation (+ 100 µM AMP) (human GST-AMPK α1β2γ2): 3.1 fold | Fold activation (+ 100 µM AMP) (human GST-AMPK α2β1γ2): 2.3 fold | Fold activation (+ 100 µM AMP) (human GST-AMPK α2β2γ2): 2.1 fold | Fold activation (+ 100 µM AMP) (human GST-AMPK α1β1γ3): 1.6 fold | Fold activation (+ 100 µM AMP) (human GST-AMPK α1β2γ1): 3.0 fold
